Experimental data from patent publication US7576218B2, “4-phenylpiperdine-pyrazole CCR1 antagonists” (ChemoCentryx, Inc., priority 2005, dated 2009).
pIC50: −log10 of the molar value.

Target: T1, CCR1 (Homo sapiens, UniProt P32246)
T1 sequence (P32246 1-355): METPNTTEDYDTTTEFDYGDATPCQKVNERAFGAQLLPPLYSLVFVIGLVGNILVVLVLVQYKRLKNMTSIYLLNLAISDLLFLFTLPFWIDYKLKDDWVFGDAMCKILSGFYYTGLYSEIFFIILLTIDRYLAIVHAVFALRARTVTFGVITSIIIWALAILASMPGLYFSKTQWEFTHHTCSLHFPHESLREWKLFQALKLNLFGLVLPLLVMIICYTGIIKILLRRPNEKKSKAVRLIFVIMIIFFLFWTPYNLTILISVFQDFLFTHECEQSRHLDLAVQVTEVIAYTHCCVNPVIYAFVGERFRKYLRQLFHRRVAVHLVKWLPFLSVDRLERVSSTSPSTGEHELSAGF
Experiment: CCR1 chemotaxis assay or binding assay (inhibition of CCR1 ligand binding / CCR1 mediated migration)
Procedure: Cells were grown under 5% CO2/95% air, 100% humidity at 37° C. and subcultured twice weekly at 1:5 (cells were cultured at a density range of 2×10^5 to 2×10^6 cells/mL) and harvested at 1×10^6 cells/mL.
Monocytes were isolated from human buffy coats using the Miltenyi bead isolation system (Miltenyi, Auburn, Calif.). Briefly, following a Ficoll gradient separation to isolate peripheral blood mononuclear cells, cells were washed with PBS and the red blood cells lysed using standard procedures. Remaining cells were labeled with anti-CD14 antibodies coupled to magnetic beads (Miltenyi Biotech, Auburn, Calif.). Labeled cells were passed through AutoMACS (Miltenyi, Auburn, Calif.) and positive fraction collected.
CCR1 expressing cells were centrifuged and resuspended in assay buffer (20 mM HEPES pH 7.1, 140 mM NaCl, 1 mM CaCl2, 5 mM MgCl2, and with 0.2% bovine serum albumin) to a concentration of 5×10^6 cells/mL for THP-1 cells and 5×10^5 for monocytes. Binding assays were set up as follows. […] Reactions were aspirated onto GF/B glass filters pre-soaked in 0.3% polyethyleneimine (PEI) solution, on a vacuum cell harvester (Packard Instruments; Meriden, Conn.). Scintillation fluid (40 μl; Microscint 20, Packard Instruments) was added to each well, the plates were sealed and radioactivity measured in a Topcount scintillation counter (Packard Instruments). Control wells containing either diluent only (for total counts) or excess MIP-1α or MIP-1β (1 μg/mL, for non-specific binding) were used to calculate the percent of total inhibition for compound. The computer program Prism from GraphPad, Inc. (San Diego, Calif.) was used to calculate IC50 values.
Chemotaxis assays were performed using 5 ? m pore polycarbonate, polyvinylpyrrolidone-coated filters in 96-well chemotaxis chambers (Neuroprobe; Gaithersburg, Md.) using chemotaxis buffer (Hank's balanced salt solution (HBSS) and 1% FBS). CCR1 chemokine ligands (i.e., MIP-1α, CCL15/Leukotactin; R&D Systems; Minneapolis, Minn.) are use to evaluate compound mediated inhibition of CCR1 mediated migration. Other chemokines (i.e., SDF-1α; R&D Systems; Minneapolis, Minn.) are used as specificity controls. […] The chambers were incubated 1-2 hours at 37° C., and the number of cells in the lower chamber quantified either by direct cell counts in five high powered fields per well or by the CyQuant assay (Molecular Probes), a fluorescent dye method that measures nucleic acid content and microscopic observation.
Equal numbers of cells were added to each well in the plate. The cells were then incubated with radiolabeled MIP-1α. Unbound ligand was removed by washing the cells, and bound ligand was determined by quantifying radioactive counts. […] Percent inhibition was determined by the equation:
In the assay, the amount of compound was varied; while cell number and ligand concentration were held constant.
THP-1 myelomonocytic leukemia cells, which resemble monocytes, as wells as freshly isolated monocytes, were used as targets for chemoattraction by CCR1 chemokine ligands (i.e., MIP-1α, CCL15/leukotactin). […] In this assay, the amount of compound was varied; while cell number and chemokine agonist concentrations were held constant. After the chemotaxis chambers were incubated 1-2 hours at 37° C., the responding cells in the lower chamber were quantified by labeling with the CyQuant assay (Molecular Probes), a fluorescent dye method that measures nucleic acid content, and by measuring with a Spectrafluor Plus (Tecan).

Compound | pIC50
Cc1c(Cl)c(C(F)(F)F)nn1CC(=O)N1CCC(CN)(c2ccc(Cl)cc2)CC1 [Example 24, 1-[4-aminomethyl-4-(4-chloro-phenyl)-piperidin-1-yl]-2-(4-chloro-5-methyl-3-trifluoromethyl-pyrazol-1-yl)-ethanone] | 4.60 to 6.00
COc1cc(C2(O)CCN(C(=O)COc3ccc(Cl)cc3)CC2)ccc1Cl [Example 6, 1-[4-(4-Chloro-3-methoxy-phenyl)-4-hydroxy-piperidin-1-yl]-2-(4-chloro-phenoxy)-ethanone] | > 6.00
Cc1c(Cl)c(C(F)(F)F)nn1CC(=O)N1CCC(O)(c2ccc(Cl)cc2)CC1 [Example 8, 2-(4-Chloro-5-methyl-3-trifluoromethyl-pyrazol-1-yl)-1-(4-hydroxy-4-(4-chloro)-phenyl-piperidin-1-yl)-ethanone] | > 6.00
CCN(CC)C(=O)C1(c2ccc(Cl)cc2)CCN(C(=O)Cn2nc(C(F)(F)F)c(Cl)c2C)CC1 [Example 14, 1-[2-(4-chloro-5-methyl-3-trifluoromethyl-pyrazol-1-yl)-acetyl]-4-(4-chloro-phenyl)-piperidine-4-diethylamide] | 4.60 to 6.00
Cc1c(Cl)c(C(F)(F)F)nn1CC(=O)N1CCC(C(=O)N2CCOCC2)(c2ccc(Cl)cc2)CC1 [Example 19, 2-(4-chloro-5-methyl-3-trifluoromethyl-pyrazol-1-yl)-1-[4-(4-chloro-phenyl)-4-(4-morpholine-1-carbonyl)-piperidin-1-yl]-ethanone morpholine] | 4.60 to 6.00
COc1cc(C2(O)CCN(C(=O)Cn3nc(-c4ncco4)c(Cl)c3C)CC2)ccc1Cl [Example 5, 1-[4-(4-Chloro-3-methoxy-phenyl)-4-hydroxy-piperidin-1-yl]-2-(4-chloro-5-methyl-3-oxazol-2-yl-pyrazol-1-yl)-ethanone] | > 6.00
Cc1c(Cl)c(C(F)(F)F)nn1CC(=O)N1CCC(C(=O)N2CCCC2)(c2ccc(Cl)cc2)CC1 [Example 15, 2-(4-chloro-5-methyl-3-trifluoromethyl-pyrazol-1-yl)-1-[4-(4-chloro-phenyl)-4-(pyrrolidine-1-carbonyl)-piperidin-1-yl]-ethanone] | 4.60 to 6.00
Cc1c(Cl)c(C(F)(F)F)nn1CC(=O)N1CCC(C(=O)N2CCN(C)CC2)(c2ccc(Cl)cc2)CC1 [Example 18, 2-(4-chloro-5-methyl-3-trifluoromethyl-pyrazol-1-yl)-1-[4-(4-chloro-phenyl)-4-(4-methyl-piperazine-1-carbonyl)-piperidin-1-yl]-ethanone] | < 4.60
Cc1c(Cl)c(C(F)(F)F)nn1CC(=O)N1CCC(C(=O)N2CCCCC2)(c2ccc(Cl)cc2)CC1 [Example 16, 2-(4-chloro-5-methyl-3-trifluoromethyl-pyrazol-1-yl)-1-[4-(4-chloro-phenyl)-4-(piperidine-1-carbonyl)-piperidin-1-yl]-ethanone] | 4.60 to 6.00
Cc1c(Cl)c(C(F)(F)F)nn1CC(=O)N1CCC(O)(c2cccc(C(F)(F)F)c2)CC1 [Example 11, 2-(4-Chloro-5-methyl-3-trifluoromethyl-pyrazol-1-yl)-1-(4-hydroxy-4-(3-trifluoromethyl)-phenyl-piperidin-1-yl)-ethanone] | 4.60 to 6.00
CCC(=O)C1(c2ccccc2)CCN(C(=O)Cn2nc(C(F)(F)F)c(Cl)c2C)CC1 [Example 28, 1-(4-ethylcarbonyl-4-phenyl-piperidin-1-yl)-2-(4-chloro-5-methyl-3-trifluoromethyl-pyrazol-1-yl)-ethanone] | 4.60 to 6.00
Cc1c(Cl)c(C(F)(F)F)nn1CC(=O)N1CCC(C(=O)O)(c2ccc(Cl)cc2)CC1 [Example 25, 1-[2-(4-chloro-5-methyl-3-trifluoromethyl-pyrazol-1-yl)-acetyl]-4-(4-chloro-phenyl)-piperidine-4-carboxylic acid] | < 4.60
COc1cc(C2(C#N)CCN(C(=O)Cn3nc(C(F)(F)F)c(Cl)c3C)CC2)ccc1Cl [Example 26] | > 6.00
Cc1c(Cl)c(C(F)(F)F)nn1CC(=O)N1CCC(C(=N)NO)(c2ccc(Cl)cc2)CC1 [Example 21, 1-[2-(4-chloro-5-methyl-3-trifluoromethyl-pyrazol-1-yl)-acetyl]-4-(4-chloro-phenyl)-N-hydroxy-piperidine-4-carboxamidine] | > 6.00
COc1cc(C2(O)CCN(C(=O)Cn3nc(C(F)(F)F)c(Cl)c3C)CC2)ccc1Cl [Example 4, 1-[4-(4-Chloro-3-methoxy-phenyl)-4-hydroxy-piperidin-1-yl]-2-(4-chloro-5-methyl-3-trifluoromethyl-pyrazol-1-yl)-ethanone] | > 6.00
Cc1c(Cl)c(C(F)(F)F)nn1CC(=O)N1CCC(c2ccc(Cl)cc2)(c2nnn[nH]2)CC1 [Example 20, 2-(4-chloro-5-methyl-3-trifluoromethyl-pyrazol-1-yl)-1-[4-(4-chloro-phenyl)-4-(1H-tetrazol-5-yl)-piperidin-1-yl]-ethanone] | 4.60 to 6.00
COC(=O)C1(c2ccc(Cl)cc2)CCN(C(=O)Cn2nc(C(F)(F)F)c(Cl)c2C)CC1 [Example 2, 1-[2-(4-chloro-5-methyl-3-trifluoromethyl-pyrazol-1-yl)-acetyl]-4-(4-chloro-phenyl)-piperidine-4-carboxylic acid methyl ester] | > 6.00
Cc1c(Cl)c(C(F)(F)F)nn1CC(=O)N1CCC(C(N)=O)(c2ccc(Cl)cc2)CC1 [Example 22, 1-[2-(4-chloro-5-methyl-3-trifluoromethyl-pyrazol-1-yl)-acetyl]-4-(4-chloro-phenyl)-piperidine-4-carboxylic acid amide] | > 6.00
CC(=O)C1(c2ccccc2)CCN(C(=O)Cn2nc(C(F)(F)F)c(Cl)c2C)CC1 [Example 27, 1-(4-Acetyl-4-phenyl-piperidin-1-yl)-2-(4-chloro-5-methyl-3-trifluoromethyl-pyrazol-1-yl)-ethanone] | 4.60 to 6.00
Cc1c(Cl)c(C(F)(F)F)nn1CC(=O)N1CCC(CO)(c2ccc(Cl)cc2)CC1 [Example 23, 2-(4-chloro-5-methyl-3-trifluoromethyl-pyrazol-1-yl)-1-[4-(4-chloro-phenyl)-4-hydroxymethyl-piperidin-1-yl]-ethanone] | 4.60 to 6.00
Cc1c(Cl)c(C(F)(F)F)nn1CC(=O)N1CCC(O)(c2ccc(Br)cc2)CC1 [Example 10, 2-(4-Chloro-5-methyl-3-trifluoromethyl-pyrazol-1-yl)-1-(4-hydroxy-4-(4-bromo)-phenyl-piperidin-1-yl)-ethanone] | 4.60 to 6.00
Cc1c(Cl)c(C(F)(F)F)nn1CC(=O)N1CCC(C(=O)N2CCNCC2)(c2ccc(Cl)cc2)CC1 [Example 17, 2-(4-chloro-5-methyl-3-trifluoromethyl-pyrazol-1-yl)-1-[4-(4-chloro-phenyl)-4-(piperazine-1-carbonyl)-piperidin-1-yl]-ethanone] | < 4.60
CNC(=O)C1(c2ccc(Cl)cc2)CCN(C(=O)Cn2nc(C(F)(F)F)c(Cl)c2C)CC1 [Example 13, 1-[2-(4-chloro-5-methyl-3-trifluoromethyl-pyrazol-1-yl)-acetyl]-4-(4-chloro-phenyl)-piperidine-4-methylamide] | 4.60 to 6.00
Cc1c(Cl)c(C(F)(F)F)nn1CC(=O)N1CCC(C#N)(c2ccc(Cl)cc2)CC1 [Example 1, 1-[2-(4-chloro-5-methyl-3-trifluoromethyl-pyrazol-1-yl)-acetyl]-4-(4-chloro-phenyl)-piperidine-4-carbonitrile] | > 6.00
Cc1c(Cl)c(-c2ncco2)nn1CC(=O)N1CCC(C#N)(c2ccc(Cl)cc2)CC1 [Example 3, 1-[2-(4-chloro-5-methyl-3-oxazol-2-yl-pyrazol-1-yl)-acetyl]-4-(4-chloro-phenyl)-piperidine-4-carbonitrile] | > 6.00
Cc1c(Cl)c(C(F)(F)F)nn1CC(=O)N1CCC(O)(c2ccc(Cl)c(C(F)(F)F)c2)CC1 [Example 9, 2-(4-Chloro-5-methyl-3-trifluoromethyl-pyrazol-1-yl)-1-(4-hydroxy-4-(4-chloro-3-trifluoromethyl)-phenyl-piperidin-1-yl)-ethanone] | 4.60 to 6.00
Cc1c(Cl)c(C(F)(F)F)nn1CC(=O)N1CCC(C#N)(c2ccccc2)CC1 [Example 12, 1-[2-(4-chloro-5-methyl-3-trifluoromethyl-pyrazol-1-yl)-acetyl]-4-phenyl-piperidine-4-carbonitrile] | 4.60 to 6.00
Cc1c(Cl)c(C(F)(F)F)nn1CC(=O)N1CCC(O)(c2ccccc2)CC1 [Example 7, 2-(4-Chloro-5-methyl-3-trifluoromethyl-pyrazol-1-yl)-1-(4-hydroxy-4-phenyl-piperidin-1-yl)-ethanone] | 4.60 to 6.00
CCCC(=O)C1(c2ccccc2)CCN(C(=O)Cn2nc(C(F)(F)F)c(Cl)c2C)CC1 [Example 29, 1-(4-propylcarbonyl-4-phenyl-piperidin-1-yl)-2-(4-chloro-5-methyl-3-trifluoromethyl-pyrazol-1-yl)-ethanone] | > 6.00
